Where “and” joins values, the source holds several entries; their conditions need not be identical. Equal entries are not always repeated. Toxic doses and inconclusive results are not listed.

In the test the test system is CD2F1 mice, L1210 leukemia ip, survival T/C. Briefly: NCI In Vivo Anticancer Drug Screen. Data for tumor model L1210 Leukemia (intraperitoneal) in CD2F1 (CDF1) mice. The settings on record: higher = longer survival. The procedure, abridged:
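Compound-dosed mice with transplantable tumor versus matched vehicle controls; endpoint ratio T/C reported.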

[1] abbreviates: endpoint: mean survival time, dose: 100.0 mg/kg/injection, schedule: Q01DX009 (ip), vehicle: saline with Tween-80.
The mark [2] stands for this setting: endpoint: mean survival time, dose: 200.0 mg/kg/injection, schedule: Q01DX009 (ip), vehicle: saline with Tween-80.
The mark [3] stands for this setting: endpoint: mean survival time, dose: 400.0 mg/kg/injection, schedule: Q01DX009 (ip), vehicle: saline with Tween-80.
Setting [4] is: endpoint: mean survival time, dose: 100.0 mg/kg/injection, schedule: Q04DX003 (ip), vehicle: saline with Tween-80.
Setting [5] is: endpoint: mean survival time, dose: 200.0 mg/kg/injection, schedule: Q04DX003 (ip), vehicle: saline with Tween-80.
[6] abbreviates: endpoint: mean survival time, dose: 400.0 mg/kg/injection, schedule: Q04DX003 (ip), vehicle: saline with Tween-80.
The mark [7] stands for this setting: endpoint: mean survival time, dose: 50.0 mg/kg/injection, schedule: Q01DX009 (ip), vehicle: saline with Tween-80.
The mark [8] stands for this setting: endpoint: mean survival time, dose: 100.0 mg/kg/injection, schedule: Q01DX001 (ip), vehicle: saline with Tween-80.
Setting [9] is: endpoint: mean survival time, dose: 100.0 mg/kg/injection, schedule: Q04DX002 (ip), vehicle: saline with Tween-80.
The mark [10] stands for this setting: endpoint: mean survival time, dose: 200.0 mg/kg/injection, schedule: Q04DX002 (ip), vehicle: saline with Tween-80.
The mark [11] stands for this setting: endpoint: mean survival time, dose: 400.0 mg/kg/injection, schedule: Q04DX002 (ip), vehicle: saline with Tween-80.
Setting [12] is: endpoint: mean survival time, dose: 100.0 mg/kg/injection, schedule: Q04DX002 (ip), vehicle: saline.
Setting [13] is: endpoint: mean survival time, dose: 200.0 mg/kg/injection, schedule: Q04DX002 (ip), vehicle: saline.
Where [14] appears, read: endpoint: mean survival time, dose: 100.0 mg/kg/injection, schedule: Q01DX001 (ip), vehicle: saline.
The mark [15] stands for this setting: endpoint: mean survival time, dose: 200.0 mg/kg/injection, schedule: Q01DX001 (ip), vehicle: saline.
The mark [16] stands for this setting: endpoint: mean survival time, dose: 400.0 mg/kg/injection, schedule: Q01DX001 (ip), vehicle: saline.

For `[CH3][Sb]([CH3])([CH3])([O]C(=O)CF)[O]C(=O)CF`, the T/C is, setting by setting: (endpoint: mean survival time, dose: 1.25 mg/kg/injection, schedule: Q01DX009 (ip), vehicle: saline) 102 % of control; (endpoint: mean survival time, dose: 2.5 mg/kg/injection, schedule: Q01DX009 (ip), vehicle: saline) 100 % of control; (endpoint: mean survival time, dose: 5.0 mg/kg/injection, schedule: Q01DX009 (ip), vehicle: saline) 106 % of control.

For `CC(=O)c1cccc(N=NN(C)C)c1`, the T/C was 124 % of control (endpoint: mean survival time, dose: 46.0 mg/kg/injection, schedule: Q01DX009 (ip), vehicle: Klucel (hydroxypropylcellulose) (HPC)); 154 % of control (endpoint: mean survival time, dose: 69.0 mg/kg/injection, schedule: Q01DX009 (ip), vehicle: Klucel (hydroxypropylcellulose) (HPC)); 87 % of control and 107 % of control (endpoint: mean survival time, dose: 158.0 mg/kg/injection, schedule: Q01DX009 (ip), vehicle: Klucel (hydroxypropylcellulose) (HPC)).

As to `C=C1CC23CC1(O)CCC2C12C=CCC(C)(C(=O)O1)C2C3C(=O)O` (stereo unspecified), the T/C was 91 % of control under setting [1], 95 % of control under setting [2] and 91 % of control under setting [3].

`CCOC(=O)CCCCCCCCC(=O)Nc1ccc(-n2[nH]c(=O)cc2C)cc1`: the T/C was 92 % of control under setting [4], 92 % of control under setting [5] and 87 % of control under setting [6].

For `O=C(Nc1cc(C(F)(F)F)ccc1Cl)c1cccc(C(=O)Nc2cc(C(F)(F)F)ccc2Cl)c1`, the T/C reads like this: (endpoint: mean survival time, dose: 12.5 mg/kg/injection, schedule: Q01DX009 (ip), vehicle: saline with Tween-80) 86 % of control; (endpoint: mean survival time, dose: 25.0 mg/kg/injection, schedule: Q01DX009 (ip), vehicle: saline with Tween-80) 90 % of control; under setting [7], 92 % of control.

As to `CN1C(=O)C=C(C=Nc2ccc(-c3ccccc3)cc2)C2CCCCC21` (stereo unspecified), the T/C reads like this: under setting [4], 106 % of control; under setting [5], 98 % of control; under setting [6], 97 % of control.

Consider `CN(C)c1ccc(/C=N/NC(=O)CNC(=O)Nc2cccc(C(F)(F)F)c2)c(Cl)c1`, for which the T/C runs as follows: under setting [7], 88 % of control; under setting [1], 88 % of control; under setting [2], 88 % of control.

Take `CCCCCCCCCCCC(=O)/C=C/Sc1n[nH]c(=O)[nH]c1=O`: the T/C is 102 % of control (endpoint: mean survival time, dose: 12.5 mg/kg/injection, schedule: Q01DX005 (ip), vehicle: distilled water + Tween-80); 104 % of control (endpoint: mean survival time, dose: 25.0 mg/kg/injection, schedule: Q01DX005 (ip), vehicle: distilled water + Tween-80); 100 % of control (endpoint: mean survival time, dose: 50.0 mg/kg/injection, schedule: Q01DX005 (ip), vehicle: distilled water + Tween-80); 102 % of control (endpoint: mean survival time, dose: 100.0 mg/kg/injection, schedule: Q01DX005 (ip), vehicle: distilled water + Tween-80).

`CCOC(=O)C1(C(=O)OCC)C(C)CC(OCC)N1C(=O)c1cc2c(cc1[N+](=O)[O-])OCO2` (stereo unspecified): the T/C was 100 % of control (endpoint: mean survival time, dose: 100.0 mg/kg/injection, schedule: Q01DX001 (ip), vehicle: Klucel (hydroxypropylcellulose) (HPC)); 100 % of control (endpoint: mean survival time, dose: 200.0 mg/kg/injection, schedule: Q01DX001 (ip), vehicle: Klucel (hydroxypropylcellulose) (HPC)); 100 % of control (endpoint: mean survival time, dose: 400.0 mg/kg/injection, schedule: Q01DX001 (ip), vehicle: Klucel (hydroxypropylcellulose) (HPC)).

With `OC(c1ccccc1)(c1ccccc1)c1ccc(CN2CCOCC2)cc1`, the T/C was 101 % of control (endpoint: mean survival time, dose: 12.5 mg/kg/injection, schedule: Q01DX009 (ip), vehicle: other); 98 % of control (endpoint: mean survival time, dose: 25.0 mg/kg/injection, schedule: Q01DX009 (ip), vehicle: other); 93 % of control (endpoint: mean survival time, dose: 50.0 mg/kg/injection, schedule: Q01DX009 (ip), vehicle: other); 90 % of control (endpoint: mean survival time, dose: 100.0 mg/kg/injection, schedule: Q01DX009 (ip), vehicle: other); 98 % of control (endpoint: mean survival time, dose: 200.0 mg/kg/injection, schedule: Q01DX009 (ip), vehicle: other).

Turning to `O=C1OC(C(Cl)(Cl)Cl)OC1C(Cl)(Cl)Cl` (stereo unspecified), under setting [8], the T/C was 97 % of control.

On to `CC(=O)N(c1c(-c2ccccc2)nc2ccccc2c1C(=O)O)C1CCCCC1`, for which the T/C by setting is: under setting [1], 100 % of control; under setting [4], 102 % of control; under setting [2], 96 % of control; under setting [5], 98 % of control; under setting [3], 90 % of control; under setting [6], 90 % of control.

Regarding `CCOC(=O)N(C)c1ccc(Cl)cc1C(N)=O`, the T/C runs as follows: under setting [9], 101 % of control; under setting [10], 97 % of control; under setting [11], 118 % of control.

In the case of `Cn1c(N)c(N)c(=O)n(C)c1=O`, the T/C under setting [12] is 109 % of control; the T/C under setting [13] was 102 % of control; the T/C (endpoint: mean survival time, dose: 400.0 mg/kg/injection, schedule: Q04DX002 (ip), vehicle: saline) was 109 % of control.

On to `O=C(COc1cccc(Cl)c1)Nc1cccc(NC(=O)c2ccc(S(=O)(=O)F)cc2)c1`, for which the T/C under setting [8] is 91 % of control; the T/C (endpoint: mean survival time, dose: 200.0 mg/kg/injection, schedule: Q01DX001 (ip), vehicle: saline with Tween-80) was 90 % of control; the T/C (endpoint: mean survival time, dose: 400.0 mg/kg/injection, schedule: Q01DX001 (ip), vehicle: saline with Tween-80) was 101 % of control.

For `C=C1C(=O)OC2CC3(C)CCCC(C)C34OC4C12` (stereo unspecified), the T/C (endpoint: mean survival time, dose: 50.0 mg/kg/injection, schedule: Q04DX002 (ip), vehicle: saline) is 90 % of control; the T/C under setting [12] was 98 % of control; the T/C under setting [13] is 114 % of control.

Regarding `COC(=O)c1[se]c(C(=O)OC)c(-c2ccccc2)c1-c1ccccc1`, the T/C runs as follows: under setting [14], 100 % of control; under setting [15], 103 % of control; under setting [16], 103 % of control.

Consider `CCCc1cc(=O)[nH]c(SCC(=O)O)n1`, for which the T/C by setting is: under setting [9], 98 % of control; under setting [10], 98 % of control; under setting [11], 92 % of control.

`O=C1N[C@@H]2C(=C[C@H](O)[C@@H](O)[C@H]2O)c2cc3c(c(O)c21)OCO3`: the T/C (endpoint: median survival time, dose: 0.62 mg/kg/injection, schedule: Q01DX009 (ip), vehicle: saline with Tween-80) was 110 % of control; the T/C (endpoint: median survival time, dose: 1.25 mg/kg/injection, schedule: Q01DX009 (ip), vehicle: saline with Tween-80) was 108 % of control; the T/C (endpoint: median survival time, dose: 2.5 mg/kg/injection, schedule: Q01DX009 (ip), vehicle: saline with Tween-80) was 113 % of control; the T/C (endpoint: median survival time, dose: 5.0 mg/kg/injection, schedule: Q01DX009 (ip), vehicle: saline with Tween-80) was 115 % of control.

With `CN(C)c1ccc(N=Cc2cc[n+](C)cc2)cc1`, the T/C runs as follows: (endpoint: mean survival time, dose: 25.0 mg/kg/injection, schedule: Q04DX003 (ip), vehicle: saline) 98 % of control; (endpoint: mean survival time, dose: 50.0 mg/kg/injection, schedule: Q04DX003 (ip), vehicle: saline) 102 % of control; (endpoint: mean survival time, dose: 100.0 mg/kg/injection, schedule: Q04DX003 (ip), vehicle: saline) 102 % of control.

For the compound `N#Cc1c2ccccc2nn1C1OC(CO)C(O)C1O` (stereo unspecified), the T/C runs as follows: (endpoint: mean survival time, dose: 100.0 mg/kg/injection, schedule: Q01DX005 (ip), vehicle: saline) 109 % of control; (endpoint: mean survival time, dose: 200.0 mg/kg/injection, schedule: Q01DX005 (ip), vehicle: saline) 98 % of control.

For the compound `CCCC(CC)C(=O)CC1CCCCC1` (stereo unspecified), the T/C was 105 % of control under setting [4], 94 % of control under setting [5] and 98 % of control under setting [6].

On to `CCOC(=O)C(CO)(NC(C)=O)C(=O)OCC`, for which the T/C by setting is: under setting [1], 94 % of control; under setting [2], 98 % of control; under setting [3], 105 % of control.

In the case of `CC(C)(C)CC(C)(C)c1ccc(OCCOc2ccc(S(=O)(=O)O)cc2[N+](=O)[O-])cc1`, the T/C is, setting by setting: under setting [14], 102 % of control; under setting [15], 102 % of control; under setting [16], 98 % of control.

Turning to `O=S1(=O)CC2(OCCO2)C1Cl` (stereo unspecified), the T/C is, setting by setting: under setting [9], 95 % of control; under setting [10], 91 % of control.

Turning to `COC(=O)C1c2ccccc2-c2ccccc21`, the T/C runs as follows: (endpoint: mean survival time, dose: 50.0 mg/kg/injection, schedule: Q04DX003 (ip), vehicle: saline with Tween-80) 95 % of control; under setting [4], 103 % of control; under setting [5], 100 % of control.

The record behind these values is PubChem BioAssay AID256 (DTP/NCI, 2004).
